Reference: patent publication US20050118381A1, “Diimonium salt mixtures, aminium salts mixtures and use thereof” (priority 2002, published 2005)

Tests used:
Assay type in all cases: physicochemical
[1] = Heat resistance stability test of near-infrared absorption filter coat film
Description: (§1) 1.2 parts of compound No. 1a (Sample 1X), No. 6a (Sample 2X) and No. 15a (Sample 3X) was each dissolved in 18.8 parts of MEK. To the solution was added 80 parts of a resin solution obtained by dissolving 25 parts of an acrylic resin (Dianal BR-80, available from Mitsubishi Rayon Co., Ltd.) in 75 parts of MEK to prepare a coating solution. The coating solution was applied to a polyester film in a thickness of 2 to 4 μm and dried at 80° C. to obtain the near-infrared absorption filter of the present invention.
(§2) The obtained coat film was subjected to a heat resistance stability test in a hot air dryer at 80° C. for a predetermined time and a moisture heat resistance stability test in a temperature and humidity controlled apparatus under conditions of 60° C. and 95% RH for a predetermined time. In addition, Samples 1X and 2X were subjected to a lightfastness test using a weatherometer (Ci4000, made by Atlas Electric Devices Co.) under conditions of light source output: 0.36 W/m^2, bath temperature: 24° C., black panel temperature: 40° C. and humidity: 30% RH for 50 hours. After the tests, the color of the film was measured by an ultraviolet/visible light spectrophotometer (UV-2100, made by Shimadzu Corporation) to calculate L*, a*, b* values and stability was evaluated from the variation of the b* value. The results of heat resistance test are shown in Table 9, the results of the moisture heat resistance test are shown in Table 10 and the results of the lightfastness test are shown in Table 11.
(§3) Coat films were prepared and evaluated in the same manner except that hexafluoroantimonate of tetrakis{p-di(n-butyl)aminophenyl}phenylenediimonium (Comparative Sample 1X) and hexafluoroantimonate of tetrakis{p-di(3-cyanopropyl)aminophenyl}phenylenediimonium (Comparative Sample 2X) were used instead of the above compounds.

[2] = Moisture heat resistance stability test of near-infrared absorption filter coat film; conditions: acrylic resin coat film
Description: as §1, §2, §3

[3] = Lightfastness test of near-infrared absorption filter coat film; conditions: acrylic resin coat film
Description: as §1
The obtained coat film was subjected to a heat resistance stability test in a hot air dryer at 80° C. for a predetermined time and a moisture heat resistance stability test in a temperature and humidity controlled apparatus under conditions of 60° C. and 95% RH for a predetermined time. […] After the tests, the color of the film was measured by an ultraviolet/visible light spectrophotometer (UV-2100, made by Shimadzu Corporation) to calculate L*, a*, b* values and stability was evaluated from the variation of the b* value. […]
as §3

[4] = Lightfastness test of dye film containing diimonium salt compound
Description: (§4) 0.3 part of cyanine dye (OM-57) was dissolved in 15 parts of tetrafluoropropanol and 0.04 part of compound No. 2a was added to the solution to prepare coating. The obtained coating was spin coated on a polycarbonate substrate to prepare a dye film (Sample 1Y). The obtained dye film was subjected to a lightfastness test using a weatherometer (Ci4000, made by Atlas Electric Devices Co.) under conditions of light source output: 0.36 W/m^2, bath temperature: 24° C., black panel temperature: 40° C. and humidity: 30% RH for 50 hours, by applying light from the substrate side. Then the residual ratio of the cyanine dye was measured by a spectrophotometer.
Further, dye films were prepared and evaluated in the same manner except that compounds of No. 3a (Sample 2Y), No. 7a (Sample 3Y) and No. 10a (Sample 4Y), compounds of No. 12a (Sample 5Y) and No. 13a (Sample 6Y) and compound No. 19a (Sample 7Y) were used instead of compound No. 2a, and the results are shown in Table 12.
For comparison, a dye film was prepared and evaluated in the same manner except that hexafluoroantimonate of tetrakis{p-di(n-butyl)aminophenyl}phenylenediimonium (Comparative Sample 1Y) was used instead of compound No. 2a.

[5] = Lightfastness test of dye film containing aminium salt compound
Description: as §4, with “2b” for “2a”, “1Z).” for “1Y).”, “150” for “50”
Further, dye films were prepared and evaluated in the same manner except that compounds of No. 3b (Sample 2Z), No. 4b (Sample 3Z) and No. 7b (Sample 4Z) and compound No. 12b (Sample 5Z) were used instead of compound No. 2b, and the results are shown in Table 13.
For comparison, a dye film was prepared and evaluated in the same manner except that hexafluoroantimonate of tetrakis{p-di(n-butyl)aminophenyl}phenylenediimonium (Comparative Sample 1Z) was used instead of compound No. 2b.

[6] = Solubility test of diimonium salt compound
Description: Solubility of compounds No. 1a, No. 3a, No. 6a, No. 2a, No. 7a, No. 13a and No. 12a obtained in the above Examples in diacetone alcohol (DAA), methyl ethyl ketone (MEK) and cyclohexanone was measured. Measurement of solubility was conducted in the same manner except that hexafluoroantimonate of tetrakis{p-di(3-cyanopropyl)aminophenyl}phenylenediimonium (Comparative Sample 1) was used instead of the above compounds.

[7] = Solubility test of aminium salt compound
Description: Solubility of Compounds No. 1b, No. 3b, No. 4b, No. 6b, No. 7b, No. 12b, No. 13b, No. 14b and No. 15b obtained in the above Examples in diacetone alcohol (DAA), methyl ethyl ketone (MEK), tetrahydrofuran (THF) and methylcellosolve was measured. Measurement of solubility was conducted in the same manner except that hexafluoroantimonate of tetrakis{p-di(3-cyanopropyl)aminophenyl}phenyleneaminium (Comparative Sample 2) and hexafluorophosphate thereof (Comparative Sample 3) were used instead of the above compounds.

[8] = dye film: 0.3 part OM-57 + 0.04 part compound on polycarbonate, before irradiation

Compound: CCCCN(CCCC)c1ccc([N+](=C2C=CC(=[N+](c3ccc(N(CCCC)CCCC)cc3)c3ccc(N(CCCC)CCCC)cc3)C=C2)c2ccc(N(CCCC)CCCC)cc2)cc1.[F][Sb-]([F])([F])([F])([F])[F].[F][Sb-]([F])([F])([F])([F])[F] [Comparative Sample 1X, hexafluoroantimonate of tetrakis{p-di(n-butyl)aminophenyl}phenylenediimonium]
- b* value initial stage ([1]; acrylic resin coat film on polyester film, before hot air dryer 80° C.): 2.85
- b* value after 4 days ([1]; acrylic resin coat film, hot air dryer 80° C., 4 days): 3.65
- b* value after 7 days ([1]; acrylic resin coat film, hot air dryer 80° C., 7 days): 3.93
- b* value after 14 days ([1]; acrylic resin coat film, hot air dryer 80° C., 14 days): 4.30
- b* value after 4 days ([2]; 60° C. and 95% RH, 4 days): 4.23
- b* value after 7 days ([2]; 60° C. and 95% RH, 7 days): 4.69
- b* value after 14 days ([2]; 60° C. and 95% RH, 14 days): 5.55
- b* value initial stage ([2]; before 60° C. and 95% RH): 2.85
- b* value initial stage ([3]; before weatherometer): 2.85
- b* value after 50 hours ([3]; weatherometer 0.36 W/m^2, 24° C., 30% RH, 50 hours): 6.49
- residual ratio of cyanine dye initial stage [4, 8]: 100%
- residual ratio of cyanine dye after 50 hours ([4]; dye film: 0.3 part OM-57 + 0.04 part compound, weatherometer 0.36 W/m^2, 50 hours): 69%
- residual ratio of cyanine dye initial stage [5, 8]: 100%
- residual ratio of cyanine dye after 150 hours ([5]; dye film: 0.3 part OM-57 + 0.04 part compound, weatherometer 0.36 W/m^2, 150 hours): 29%

Compound: hexafluoroantimonate of tetrakis{p-di(3-cyanopropyl)aminophenyl}phenylenediimonium [Comparative Sample 1]
- solubility cyclohexane ([6]; column head cyclohexane (text: cyclohexanone)): insoluble
- solubility DAA ([6]; in diacetone alcohol (DAA)): insoluble
- solubility MEK ([6]; in methyl ethyl ketone (MEK)): insoluble
- solubility in MEK (film preparation) ([1]; 1.2 parts in 18.8 parts of MEK, impossible to prepare a film): poor

Compound: hexafluoroantimonate of tetrakis{p-di(3-cyanopropyl)aminophenyl}phenyleneaminium [Comparative Sample 2]
- solubility DAA ([7]; in diacetone alcohol (DAA)): 1.2 wt %
- solubility MEK ([7]; in methyl ethyl ketone (MEK)): 1.7 wt %
- solubility THF ([7]; in tetrahydrofuran (THF)): insoluble
